Reference: ChEMBL document CHEMBL5131424, “Synthesis and evaluation of antibacterial and trypanocidal activity of derivatives of monensin A” (Bioorg Med Chem Lett, 2022)
Converted amounts (≈) assume the structure as drawn.

How the values were obtained:
[1] = system: Staphylococcus epidermidis; experiment: Antibacterial activity against Staphylococcus epidermidis ATCC 12228; assay type: functional
[2] = system: Staphylococcus epidermidis; experiment: Potency index, ratio of ciprofloxacin MIC to test compound MIC for antibacterial activity against Staphylococcus epidermidis 830/19; assay type: functional
Staphylococcus aureus [3] = experiment: Antibacterial activity against Staphylococcus aureus ATCC 29213; assay type: functional
Trypanosoma brucei = experiment: Antitrypanosomal activity against bloodstream form of Trypanosoma brucei clone 427-221a measured after 24 hrs by resazurin dye based assay; assay type: functional
Pseudomonas aeruginosa [4] = experiment: Antibacterial activity against Pseudomonas aeruginosa […]; assay type: functional
[5] = system: Staphylococcus epidermidis; experiment: Potency index, ratio of ciprofloxacin MIC to test compound MIC for antibacterial activity against Staphylococcus epidermidis 845/19; assay type: functional
[6] = system: Staphylococcus epidermidis; experiment: Antibacterial activity against Staphylococcus epidermidis ATCC 35984; assay type: functional
Escherichia coli [7] = experiment: Antibacterial activity against Escherichia coli ATCC 25922; assay type: functional
[8] = system: Staphylococcus epidermidis; experiment: Antibacterial activity against Staphylococcus epidermidis 845/19; assay type: functional
[9] = Selectivity ratio of MIC for cytotoxicity against human HL-60 cells to MIC for antitrypanosomal activity against bloodstream form of Trypanosoma brucei clone 427-221a; assay type: toxicity, cell-based
Staphylococcus aureus [10] = experiment: Antibacterial activity against Staphylococcus aureus ATCC 6538; assay type: functional
[11] = system: Staphylococcus epidermidis; experiment: Antibacterial activity against Staphylococcus epidermidis 829/19; assay type: functional
[12] = system: Staphylococcus epidermidis; experiment: Antibacterial activity against Staphylococcus epidermidis 840/19; assay type: functional
Escherichia coli [13] = experiment: Antibacterial activity against Escherichia coli NCTC 10538; assay type: functional
Pseudomonas aeruginosa [14] = experiment: Antibacterial activity against Pseudomonas aeruginosa ATCC 15442; assay type: functional
[15] = system: Staphylococcus epidermidis; experiment: Potency index, ratio of ciprofloxacin MIC to test compound MIC for antibacterial activity against Staphylococcus epidermidis 825/19; assay type: functional
[16] = system: Staphylococcus epidermidis; experiment: Antibacterial activity against Staphylococcus epidermidis 851/19; assay type: functional
HL-60 = experiment: (§1) Cytotoxicity against human HL-60 cells assessed as reduction in cell viability measured after 24 hrs by resazurin dye based assay; assay type: toxicity; details: hl-60, 24 h
[17] = as §1; assay type: toxicity; details: HL-60 cells
[18] = Selectivity ratio of GI50 for cytotoxicity against human HL-60 cells to GI50 for antitrypanosomal activity against bloodstream form of Trypanosoma brucei clone 427-221a; assay type: toxicity, cell-based; details: read-out: RatioGI50
[19] = system: Staphylococcus epidermidis; experiment: Antibacterial activity against Staphylococcus epidermidis 825/19; assay type: functional
[20] = system: Staphylococcus epidermidis; experiment: Antibacterial activity against Staphylococcus epidermidis 848/19; assay type: functional
[21] = system: Staphylococcus epidermidis; experiment: Antibacterial activity against Staphylococcus epidermidis 830/19; assay type: functional
Staphylococcus aureus [22] = experiment: Antibacterial activity against Staphylococcus aureus NCTC 4163; assay type: functional
Staphylococcus aureus [23] = experiment: Antibacterial activity against Staphylococcus aureus ATCC 25923; assay type: functional
[24] = system: Staphylococcus epidermidis; experiment: Antibacterial activity against Staphylococcus epidermidis 834/19; assay type: functional

MIC [1]	MIC (Staphylococcus aureus [3])	GI50 (Trypanosoma brucei)	MIC (Trypanosoma brucei)	MIC (Pseudomonas aeruginosa [4])	MIC [6]	MIC (Escherichia coli [7])	MIC [8]	MIC (Staphylococcus aureus [10])	MIC [11]	MIC [12]	MIC (Escherichia coli [13])	MIC (Pseudomonas aeruginosa [14])	MIC [16]	MIC [19]	MIC [20]	SMILES	selectivity ratio [9]	MIC (HL-60)	GI50 at 24 h [17]	selectivity ratio [18]	other results
0.25 µg/mL (≈ 0.316 µM)	0.25 µg/mL (≈ 0.316 µM)	0.27 µM	1 µM (≈ 0.792 µg/mL)	> 256 µg/mL	0.5 µg/mL (≈ 0.631 µM)	> 256 µg/mL	0.5 µg/mL (≈ 0.631 µM)	0.25 µg/mL (≈ 0.316 µM)	0.25 µg/mL (≈ 0.316 µM)	0.5 µg/mL (≈ 0.631 µM)	> 256 µg/mL	> 256 µg/mL	0.5 µg/mL (≈ 0.631 µM)	0.25 µg/mL (≈ 0.316 µM)	0.5 µg/mL (≈ 0.631 µM)	CO[C@H]([C@H](C)[C@H]1O[C@@]2(CC[C@@](C)([C@H]3CC[C@@](CO)([C@@H]4O[C@@H]([C@H]5O[C@@](O)(COC(=O)Nc6ccccc6)[C@H](C)C[C@@H]5C)C[C@@H]4C)O3)O2)C[C@H](O)[C@H]1C)[C@H](C)C(=O)O	100	100 µM (≈ 79.2 µg/mL)	8.94 µM	33.1	Ratio [2]: <=256; Ratio [5]: <=256; Ratio [15]: <=256; MIC [21]: 0.25 µg/mL (≈ 0.316 µM); MIC (Staphylococcus aureus [22]): 0.25 µg/mL (≈ 0.316 µM); MIC (Staphylococcus aureus [23]): 0.25 µg/mL (≈ 0.316 µM); MIC [24]: 0.5 µg/mL (≈ 0.631 µM)
2 µg/mL (≈ 2.42 µM)	2 µg/mL (≈ 2.42 µM)	0.038 µM	1 µM (≈ 0.827 µg/mL)	> 256 µg/mL	2 µg/mL (≈ 2.42 µM)	> 256 µg/mL	2 µg/mL (≈ 2.42 µM)	2 µg/mL (≈ 2.42 µM)	2 µg/mL (≈ 2.42 µM)	2 µg/mL (≈ 2.42 µM)	> 256 µg/mL	> 256 µg/mL	2 µg/mL (≈ 2.42 µM)	1 µg/mL (≈ 1.21 µM)	2 µg/mL (≈ 2.42 µM)	CCCCCCCCCC(=O)OC[C@]1(O)O[C@H]([C@H]2C[C@H](C)[C@H]([C@]3(CO)CC[C@H]([C@]4(C)CC[C@]5(C[C@H](O)[C@@H](C)[C@@H]([C@@H](C)[C@@H](OC)[C@H](C)C(=O)O)O5)O4)O3)O2)[C@@H](C)C[C@H]1C	100	100 µM (≈ 82.7 µg/mL)	10 µM	263	MIC [21]: 2 µg/mL (≈ 2.42 µM); MIC (Staphylococcus aureus [22]): 2 µg/mL (≈ 2.42 µM); MIC (Staphylococcus aureus [23]): 1 µg/mL (≈ 1.21 µM); MIC [24]: 2 µg/mL (≈ 2.42 µM)
